Assay results as given in PMC12024397, “Structure–Activity Study of the Antimicrobial Lipopeptide Humimycin A and Screening Against Multidrug-Resistant Staphylococcus aureus” (Antibiotics, 2025).
In brackets after ≈: the same amount, converted by molar mass. Structures can show the parent of a compound that is named as a salt. Non-standard residues stand in square brackets, D forms with d. Residues, ends and D or L forms follow the SMILES beside them. *: point of attachment. Tetradecanoyl(3S-OH) = CCCCCCCCCCC[C@H](O)CC(=O)*

Legend:
S. aureus ATCC 29213 = assay: microbe, parasite or virus in culture; conditions: Staphylococcus aureus, ATCC29213, read-out: Inhibition zone diameter
Experimental: Each agar well was loaded with 70 µL of a peptide solution (256 µg/mL).
For the agar diffusion assay, the bacterial strain was cultured overnight at 37 °C in the previously described media. Cultures were then inoculated at 1% (v/v) in a soft agar medium containing 1.5% (w/v) agar. Wells were created in the inoculated agar plates, and 70 µL of the humimycin analog solution (256 µg/mL) was added to each well. Kanamycin sulfate (256 µg/mL) and 5% dimethyl sulfoxide (DMSO) in water were included as positive and negative control, respectively.

[1] = system: Staphylococcus aureus ATCC 29213; format: cell-based
Description: (§1) Analogs were serially diluted two-fold from stock solutions.

[2] = system: Staphylococcus aureus ATCC 43300; format: cell-based; conditions: ATCC 43300
Description: as §1

[3] = system: Bacillus subtilis ATCC 23857; assay: MIC, broth microdilution; format: cell-based; conditions: 37 °C, 18–20 h, triplicate
Description: as §1

[4] = system: Escherichia coli ATCC 25922; assay: MIC, broth microdilution; format: cell-based; conditions: 37 °C, 18–20 h, triplicate
Description: as §1

[5] = system: Pseudomonas aeruginosa ATCC 27853; assay: MIC, broth microdilution; format: cell-based; conditions: 37 °C, 18–20 h, triplicate
Description: as §1

[6] = system: Salmonella enterica ATCC 14028; assay: MIC, broth microdilution; format: cell-based; conditions: 37 °C, 18–20 h, triplicate
Description: as §1

[7] = system: Staphylococcus and Streptococcus species; conditions: stereochemistry of the β-hydroxyl group; cited from earlier work
Description: Among promising AMLPs of bacterial origin, humimycins show very attractive activities against S. aureus. Humimycins A 1 and B 2 are composed of a heptapeptide bearing an N-terminal β-hydroxy myristoyl lipid chain (Table 1). […] A novel approach was employed to discover humimycins by combining bioinformatics and chemical synthesis. Rather than depending on bacterial cultures to discover and produce ... || β-Hydroxymyristic acid is specifically incorporated into lipopeptides like surfactin by certain enzymes in Bacillus species. […] The presence of a hydroxyl group imparts some amphiphilicity, aiding interaction with bacterial mem ...

MIC [1] | MIC [2] | SMILES | zone of inhibition at 256 µg/mL (S. aureus ATCC 29213) | MIC [3] | MIC [4] | MIC [5] | MIC [6] | potency of (S)-isomer relative to (R)-isomer [7]
– | – | NC[C@H]1O[C@H](O[C@H]2[C@H](O)[C@@H](O[C@H]3O[C@H](CO)[C@@H](O)[C@H](N)[C@H]3O)[C@H](N)C[C@@H]2N)[C@H](O)[C@@H](O)[C@@H]1O [Kanamycin sulfate] | 24 mm | – | – | – | – | –
8 µg/mL (≈ 7.24 µM) | 16 µg/mL (≈ 14.5 µM) | CCCCCCCCCCC[C@H](O)CC(=O)N[C@@H](Cc1ccc(O)cc1)C(=O)N[C@@H](CO)C(=O)N[C@H](Cc1ccc(O)cc1)C(=O)N[C@@H](Cc1ccccc1)C(=O)N[C@@H](C(=O)N[C@H](C(=O)N[C@H](C(=O)O)C(C)C)C(C)C)[C@H](C)O [compound 1, reference compound] ({Tetradecanoyl(3S-OH)}-YS[dY]F[dT]VV-OH; N-terminus and C-terminus assumed) | – | - ^b (No antimicrobial activity was detected up to 256 µg/mL) | - (No antimicrobial activity was detected up to 256 µg/mL) | - (No antimicrobial activity was detected up to 256 µg/mL) | - (No antimicrobial activity was detected up to 256 µg/mL) | four-fold more potent
